Reference: patent publication US20190151312A1, “HEPARAN SULFATE BIOSYNTHESIS INHIBITORS FOR THE TREATMENT OF DISEASES” (BioMarin Pharmaceutical Inc., priority 2014, published 2019)
Read-outs that look alike come from different tables or passages of the source.

Tests used:
[1] = test system: cultured primary human fibroblast from MPS patients; details: cited from earlier work
[2] = test system: GM01896 cells (MPS II dermal fibroblasts); experiment: Assay 1: MPS cellular assay, MPS II (heparan sulfate disaccharide biomarkers by LC-MS); assay type: cell-based, human; details: Assay 1 for MPS II, heparan sulfate disaccharide biomarkers (I2a4, I2a6, I2S0 and/or I2S6), read-out: IC50 Range
Method in brief: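 MPS II patient dermal fibroblasts (GM01896) treated with compound at ≤30 μM for 4 to 21 days. Heparan sulfate GAGs isolated by anion exchange, digested with heparinases I-III, aniline-tagged against [13C6]aniline standards and quantified by LC-MS; IC50 from curve fitting. Viability monitored by alamar blue or ATP.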

| SMILES | IC50 ([2]; Homo sapiens, Fibroblast) [µM] | further results |
| --- | --- | --- |
| [Na+].[O-][Cl+2]([O-])[O-] [sodium chlorate] | – | effect on synthesis of PAPs (sulfate donor) ([1]; 30-60 mM sodium chlorate): inhibits the synthesis of PAPs; sulfation of heparan sulfate produced by cells ([1]; cells grown in the presence of sodium chlorate): reduced sulfation |
| Cc1nc2cc(-c3cc(Nc4ccc(Cl)cc4)nc(N4CCOCC4)n3)ccc2n1CCN1CCOCC1 [(4-chlorophenyl){6-[2-methyl-1-(2-morpholin-4-ylethyl)benzimidazol-5-yl]-2-morpholin-4-ylpyrimidin-4-yl}amine] | 1 to 5 | – |
| CC(=O)Nc1ccc(Nc2cc(-c3ccc4cnn(C)c4c3)nc(N3CCOCC3)n2)cc1 [N-(4-{[6-(1-methyl(1H-indazol-6-yl))-2-morpholin-4-ylpyrimidin-4-yl]amino}phenyl)acetamide] | 0.5 to 1 | – |
| Cn1c(CCN2CCCC2)nc2ccc(-c3cc(Nc4ccc(Cl)cc4)nc(N4CCOCC4)n3)cc21 [(4-chlorophenyl){6-[1-methyl-2-(2-pyrrolidinylethyl)benzimidazol-6-yl]-2-morpholin-4-ylpyrimidin-4-yl}amine] | < 0.5 | – |
| CNC(=O)c1ccc(Nc2cc(-c3ccc4c(c3)ncn4CC3CC3)nc(N3CCOCC3)n2)cc1 [[4-({6-[1-(cyclopropylmethyl)benzimidazol-5-yl]-2-morpholin-4-ylpyrimidin-4-yl}amino)phenyl]-N-methylcarboxamide] | < 0.5 | – |
| CN(C)CCn1cnc2cc(-c3cc(Nc4ccc(Cl)cc4)nc(N4CCOCC4)n3)ccc21 [[2-(5-{6-[(4-chlorophenyl)amino]-2-morpholin-4-ylpyrimidin-4-yl}benzimidazolyl)ethyl]dimethylamine] | – | IC50 [2]: 1 to 5 µM |
| Cn1c(N2CCCC2)nc2ccc(-c3cc(Nc4ccc(Cl)cc4)nc(N4CCOCC4)n3)cc21 [(4-chlorophenyl)[6-(1-methyl-2-pyrrolidinylbenzimidazol-6-yl)-2-morpholin-4-ylpyrimidin-4-yl]amine] | 1 to 5 | – |
| Cc1nn(C)c2cc(-c3cc(Nc4ccc5nn(C)cc5c4)nc(N4CCOCC4)n3)ccc12 [[6-(1,3-dimethyl(1H-indazol-6-yl))-2-morpholin-4-ylpyrimidin-4-yl](2-methyl(2H-indazol-5-yl))amine] | 1 to 5 | – |
| Cc1nncn1-c1ccc(Nc2cc(-c3ccc4cnn(C)c4c3)nc(N3CCOCC3)n2)cc1 [[4-(3-methyl(1,2,4-triazol-4-yl))phenyl][6-(1-methyl(1H-indazol-6-yl))-2-morpholin-4-ylpyrimidin-4-yl]amine] | 0.5 to 1 | – |
| Cn1ncc2ccc(-c3cc(Nc4ccc(N5CN=NC5=O)cc4)nc(N4CCOCC4)n3)cc21 [4-(4-{[6-(1-methyl(1H-indazol-6-yl))-2-morpholin-4-ylpyrimidin-4-yl]amino}phenyl)-1,2,4-triazolin-5-one] | 1 to 5 | – |
| CNC(=O)c1ccc(Nc2cc(-c3ccc4ncn(C)c4c3)nc(N3CCOCC3)n2)cc1 [N-methyl(4-{[6-(1-methylbenzimidazol-6-yl)-2-morpholin-4-ylpyrimidin-4-yl]amino}phenyl)carboxamide] | < 0.5 | – |
| Cn1nc(CCN2CCOCC2)c2ccc(-c3cc(Nc4ccc(F)cc4)nc(N4CCOCC4)n3)cc21 [(4-fluorophenyl){6-[1-methyl-3-(2-morpholin-4-ylethyl)(1H-indazol-6-yl)]-2-morpholin-4-ylpyrimidin-4-yl}amine] | 1 to 5 | – |
| Cc1nn(C)c2cc(-c3cc(Nc4ccc(-n5nccn5)cc4)nc(N4CCOCC4)n3)ccc12 [[6-(1,3-dimethyl(1H-indazol-6-yl))-2-morpholin-4-ylpyrimidin-4-yl](4-(1,2,3-triazol-2-yl)phenyl)amine] | < 0.5 | – |
| Cc1nc2cc(-c3cc(Nc4ccc(Cl)cc4)nc(N4CCOCC4)n3)ccc2n1C1CCC1 [(4-chlorophenyl)[6-(1-cyclobutyl-2-methylbenzimidazol-5-yl)-2-morpholin-4-ylpyrimidin-4-yl]amine] | 1 to 5 | – |
| Clc1ccc(Nc2cc(-c3ccc4ncn(C5CC5)c4c3)nc(N3CCOCC3)n2)cc1 [(4-chlorophenyl)[6-(1-cyclopropylbenzimidazol-6-yl)-2-morpholin-4-ylpyrimidin-4-yl]amine] | 0.5 to 1 | – |
| Cc1nn(C)c2cc(-c3cc(Nc4ccc(-c5ncon5)cc4)nc(N4CCOCC4)n3)ccc12 [[6-(1,3-dimethyl(1H-indazol-6-yl))-2-morpholin-4-ylpyrimidin-4-yl](4-(1,2,4-oxadiazol-3-yl)phenyl)amine] | 0.5 to 1 | – |
| Cn1ccc2ccc(Nc3cc(-c4ccc5c(CCCN6CCCC6)nn(C)c5c4)nc(N4CCOCC4)n3)cc21 [(1-methylindol-6-yl) {6-[1-methyl-3-(3-pyrrolidinylpropyl)(1H-indazol-6-yl)]-2-morpholin-4-ylpyrimidin-4-yl}amine] | – | IC50 [2]: 0.5 to 1 µM |
| Cn1ncc2ccc(-c3cc(Nc4ccc(-c5ncc[nH]5)cc4)nc(N4CCOCC4)n3)cc21 [(4-imidazol-2-ylphenyl)[6-(1-methyl(1H-indazol-6-yl))-2-morpholin-4-ylpyrimidin-4-yl]amine] | < 0.5 | – |
| Cn1nc(CCN2CCOCC2)c2ccc(-c3cc(Nc4ccc(Cl)cc4)nc(N4CCOCC4)n3)cc21 [(4-chlorophenyl){6-[1-methyl-3-(2-morpholin-4-ylethyl)(1H-indazol-6-yl)]-2-morpholin-4-ylpyrimidin-4-yl}amine] | 0.5 to 1 | – |
| Clc1ccc(Nc2cc(-c3ccc4ncn(CCCN5CCCC5)c4c3)nc(N3CCOCC3)n2)cc1 [(4-chlorophenyl){2-morpholin-4-yl-6-[1-(3-pyrrolidinylpropyl)benzimidazol-6-yl]pyrimidin-4-yl}amine] | 0.5 to 1 | – |
| CNC(=O)c1ccc(Nc2cc(-c3ccc4c(c3)ncn4CCN(C)C)nc(N3CCOCC3)n2)cc1 [{4-[(6-{1-[2-(dimethylamino)ethyl]benzimidazol-5-yl}-2-morpholin-4-ylpyrimidin-4-yl)amino]phenyl}-N-methylcarboxamide] | 1 to 5 | – |
| COCCn1ncc2ccc(-c3cc(Nc4ccc(Cl)cc4)nc(N4CCOCC4)n3)cc21 [(4-chlorophenyl){6-[1-(2-methoxyethyl)(1H-indazol-6-yl)]-2-morpholin-4-ylpyrimidin-4-yl}amine] | 1 to 5 | – |
| CNC(=O)c1ccc(Nc2cc(-c3ccc4ncn(C5CC5)c4c3)nc(N3CCOCC3)n2)cn1 [(5-{[6-(1-cyclopropylbenzimidazol-6-yl)-2-morpholin-4-ylpyrimidin-4-yl]amino}(2-pyridyl))-N-methylcarboxamide] | 0.5 to 1 | – |
| CNC(=O)c1ccc(Nc2cc(-c3ccc4cnn(C5CC5)c4c3)nc(N3CCOCC3)n2)cc1 [(4-{[6-(1-cyclopropyl(1H-indazol-6-yl))-2-morpholin-4-ylpyrimidin-4-yl]amino}phenyl)-N-methylcarboxamide] | < 0.5 | – |
| CNC(=O)c1ccc(Nc2cc(-c3ccc4cnn(CCCN5CCOCC5)c4c3)nc(N3CCOCC3)n2)cc1 [N-methyl[4-({2-morpholin-4-yl-6-[1-(3-morpholin-4-ylpropyl)(1H-indazol-6-yl)]pyrimidin-4-yl}amino)phenyl]carboxamide] | < 0.5 | – |
